Measured values as given in ChEMBL document CHEMBL3885861, “Open TG-GATES”.
Where “and” joins values, the source holds several entries; their conditions need not be identical. Equal values may be shown once.

Organism: Rattus norvegicus
Experiment: Open TG-GATES - Regimen: Single
Assay type: toxicity, organism-based, Sprague-Dawley
Parameters: regimen Single, gender Male, age 6 weeks
Conditions: in vivo, po, 0 mg/kg, route gavage, dose level Control; for APTT / Bas / Eos / Fbg / Hb / Ht / Lym / MCH / MCHC / MCV / Mono / Neu / PT / Plat / RBC / Ret / WBC: tissue Blood; for KIDNEY_L / KIDNEY_R / KIDNEY_TOTAL: tissue Kidney; for LIVER: tissue Liver; for ALP / ALT / AST / BUN / CRE / Ca / Cl / GLC / IP / K / LDH / Na / PL / RALB / TBIL / TC / TP / gamma-GTP: tissue Plasma

With O=P1(N(CCCl)CCCl)NCCCO1 (stereo not given) [CYCLOPHOSPHAMIDE ANHYDROUS] the TERMINAL_BW (3 h) was 187.8 g and 193 g, the APTT (3 h) was 22.9 s and 16.1 s and the Bas (3 h) was 0% and 0.2%. For the same compound, the Eos (3 h) was 1% and 0.6%, the Fbg (3 h) was 287.4 mg/dL and 271.4 mg/dL and the Hb (3 h) was 13.1 g/dL and 13.4 g/dL. For the same compound, the Ht (3 h) was 39.1% and 39.6%, the Lym (3 h) was 84% and 75.6% and the MCH (3 h) was 21.3 pg and 21 pg. The MCHC (3 h) was 33.5% and 33.7%, the MCV (3 h) was 63.6 fL and 62.4 fL and the Mono (3 h) was 1.6% and 3.2%. For the same compound, the Neu (3 h) was 12.8% and 20.2%, the PT (3 h) was 15.9 s and 13.8 s and the Plat (3 h) was 124.4 x10_4/uL and 125.2 x10_4/uL. For the same compound, the RBC (3 h) was 614.8 x10_4/ul and 636 x10_4/ul, the Ret (3 h) was 8.6% and 9.1% and the WBC (3 h) was 75.9 x10_2/uL and 115.3 x10_2/uL. It also gave a KIDNEY_L (3 h) of 0.9 g, a KIDNEY_R (3 h) of 0.8 g and a KIDNEY_TOTAL (3 h) of 1.7 g. The LIVER (3 h) was 8.5 g and 8.2 g, the ALP (3 h) was 1691.4 IU/L and 1383.8 IU/L and the ALT (3 h) was 46.4 IU/L and 37.2 IU/L. The AST (3 h) was 77.8 IU/L and 73.8 IU/L, the BUN (3 h) was 13.4 mg/dL and 10 mg/dL and the CRE (3 h) was 0.2 mg/dL. For the same compound, the Ca (3 h) was 10.6 mg/dL and 11 mg/dL, the Cl (3 h) was 106.8 meq/L and 105.2 meq/L and the GLC (3 h) was 188.8 mg/dL and 175.4 mg/dL. For the same compound, the IP (3 h) was 8.2 mg/dL and 8.4 mg/dL, the K (3 h) was 3.8 meq/L and 4.6 meq/L and the LDH (3 h) was 185 IU/L and 66 IU/L. For the same compound, the Na (3 h) was 144.2 meq/L and 140.4 meq/L, the PL (3 h) was 135.6 mg/dL and 140.8 mg/dL and the RALB (3 h) was 2.9 g/dL and 2.4 g/dL. The TBIL (3 h) was 0.026 mg/dL and 0.066 mg/dL, the TC (3 h) was 78.4 mg/dL and 78 mg/dL and the TP (3 h) was 5.4 g/dL and 5.2 g/dL. The gamma-GTP (3 h) was 1 IU/L and 1.2 IU/L, the TERMINAL_BW (6 h) was 190.8 g and 192 g and the APTT (6 h) was 21.9 s and 18.3 s. The Bas (6 h) was 0%, the Eos (6 h) was 0.6% and 1% and the Fbg (6 h) was 286 mg/dL and 280.6 mg/dL. The Hb (6 h) was 13.3 g/dL and 12.8 g/dL, the Ht (6 h) was 39.8% and 38.3% and the Lym (6 h) was 78.6% and 76.6%. For the same compound, the MCH (6 h) was 21.1 pg and 20.7 pg, the MCHC (6 h) was 33.5% and the MCV (6 h) was 63.1 fL and 61.8 fL. The Mono (6 h) was 2%, the Neu (6 h) was 17.8% and 20.2% and the PT (6 h) was 16.4 s and 14 s. The Plat (6 h) was 122.5 x10_4/uL and 115 x10_4/uL, the RBC (6 h) was 630.6 x10_4/ul and 620.2 x10_4/ul and the Ret (6 h) was 8.1% and 8.5%. For the same compound, the WBC (6 h) was 102.3 x10_2/uL and 90.1 x10_2/uL, the KIDNEY_L (6 h) was 0.9 g and 0.8 g and the KIDNEY_R (6 h) was 0.9 g and 0.8 g. The KIDNEY_TOTAL (6 h) was 1.7 g, the LIVER (6 h) was 8.1 g and the ALP (6 h) was 1329.6 IU/L and 1641.8 IU/L. The ALT (6 h) was 38.8 IU/L and 34.4 IU/L, the AST (6 h) was 66.8 IU/L and 71.4 IU/L and the BUN (6 h) was 10.8 mg/dL and 10 mg/dL. The CRE (6 h) was 0.1 mg/dL and 0.2 mg/dL, the Ca (6 h) was 10.6 mg/dL and 11 mg/dL and the Cl (6 h) was 106 meq/L and 106.2 meq/L. For the same compound, the GLC (6 h) was 185.2 mg/dL and 174.8 mg/dL, the IP (6 h) was 8.9 mg/dL and 9 mg/dL and the K (6 h) was 4.2 meq/L and 4.3 meq/L. The LDH (6 h) was 166.8 IU/L and 60.6 IU/L, the Na (6 h) was 143.4 meq/L and 142.4 meq/L and the PL (6 h) was 134.2 mg/dL and 136.8 mg/dL. For the same compound, the RALB (6 h) was 2.8 g/dL and 2.5 g/dL, the TBIL (6 h) was 0.032 mg/dL and 0.068 mg/dL and the TC (6 h) was 75.8 mg/dL and 74.2 mg/dL. The TP (6 h) was 5.4 g/dL and 5.3 g/dL, the gamma-GTP (6 h) was 1 IU/L and the TERMINAL_BW (9 h) was 186.5 g and 187.9 g. The APTT (9 h) was 20.3 s and 17.4 s, the Bas (9 h) was 0% and the Eos (9 h) was 0.6% and 1%. For the same compound, the Fbg (9 h) was 300.4 mg/dL and 291.4 mg/dL, the Hb (9 h) was 13 g/dL and 12.7 g/dL and the Ht (9 h) was 38.9% and 38.1%. For the same compound, the Lym (9 h) was 80.8% and 75.6%, the MCH (9 h) was 21.1 pg and 20.6 pg and the MCHC (9 h) was 33.5% and 33.3%. For the same compound, the MCV (9 h) was 62.9 fL and 61.8 fL, the Mono (9 h) was 1.8% and the Neu (9 h) was 16.4% and 20.8%. The PT (9 h) was 16.6 s and 13.9 s, the Plat (9 h) was 120.1 x10_4/uL and 120.7 x10_4/uL and the RBC (9 h) was 619.4 x10_4/ul and 616.6 x10_4/ul. The Ret (9 h) was 7.8% and 8.3%, the WBC (9 h) was 78.2 x10_2/uL and 80.1 x10_2/uL and the KIDNEY_L (9 h) was 0.9 g and 0.8 g. The KIDNEY_R (9 h) was 0.9 g and 0.8 g, the KIDNEY_TOTAL (9 h) was 1.8 g and 1.6 g and the LIVER (9 h) was 7.7 g and 7.1 g. For the same compound, the ALP (9 h) was 1482.2 IU/L and 1393 IU/L, the ALT (9 h) was 37.6 IU/L and 35 IU/L and the AST (9 h) was 69 IU/L and 73.8 IU/L. The BUN (9 h) was 10.4 mg/dL and 7.4 mg/dL, the CRE (9 h) was 0.1 mg/dL and 0.2 mg/dL and the Ca (9 h) was 10.4 mg/dL and 10.7 mg/dL. The Cl (9 h) was 106 meq/L and 106.4 meq/L, the GLC (9 h) was 178.6 mg/dL and 161 mg/dL and the IP (9 h) was 9.7 mg/dL and 9.3 mg/dL. The K (9 h) was 3.8 meq/L and 4.2 meq/L, the Na (9 h) was 143 meq/L and 141.8 meq/L and the PL (9 h) was 126.6 mg/dL and 131.6 mg/dL. The RALB (9 h) was 3 g/dL and 2.5 g/dL, the TBIL (9 h) was 0.034 mg/dL and 0.072 mg/dL and the TC (9 h) was 72.6 mg/dL and 78 mg/dL. For the same compound, the TP (9 h) was 5.4 g/dL and 5.3 g/dL, the gamma-GTP (9 h) was 1 IU/L and 1.6 IU/L and the TERMINAL_BW (24 h) was 205 g and 201 g. The APTT (24 h) was 21 s and 17.8 s, the Bas (24 h) was 0% and the Eos (24 h) was 0.6% and 1.2%. For the same compound, the Fbg (24 h) was 300.2 mg/dL and 289 mg/dL, the Hb (24 h) was 13.1 g/dL and 13.5 g/dL and the Ht (24 h) was 39.3% and 40.6%. For the same compound, the Lym (24 h) was 81.8% and 74.6%, the MCH (24 h) was 21.4 pg and 20.6 pg and the MCHC (24 h) was 33.3% and 33.4%. For the same compound, the MCV (24 h) was 64.2 fL and 61.7 fL, the Mono (24 h) was 2.2% and 3% and the Neu (24 h) was 15.2% and 21%. For the same compound, the PT (24 h) was 16.5 s and 14 s, the Plat (24 h) was 120.5 x10_4/uL and 107.8 x10_4/uL and the RBC (24 h) was 612.4 x10_4/ul and 658.4 x10_4/ul. For the same compound, the Ret (24 h) was 7.8% and 7.5%, the WBC (24 h) was 90.3 x10_2/uL and 86.9 x10_2/uL and the KIDNEY_L (24 h) was 0.9 g. The KIDNEY_R (24 h) was 0.9 g and 0.8 g and the KIDNEY_TOTAL (24 h) was 1.9 g and 1.7 g.
